# Reference: patent publication US4542137A, “Alkylaminodesoxy-1.4;3.6-dianhydrohexitol nitrates substituted by purine bases and pharmaceutical compositions” (priority 1980, dated 1985)
# Test system: mongrel dogs
# Assay: circulatory pharmacological effectiveness on narcotised dogs, intravenous
# Format: in vivo, dog
# Settings: dog i.v. ISDN/9c 1, 1d 0.5 mg/kg
smiles,measurement,setting,value
"CN(CCCn1cnc2c1c(=O)n(C)c(=O)n2C)[C@H]1CO[C@H]2[C@@H]1OC[C@@H]2O[N+](=O)[O-] [Example 9c, 5-[N-Methyl-N-(3-theophyllin-7-ylpropyl)-amino]-5-desoxy-1.4;3.6-dianhydro-L-iditol 2-nitrate]",APdiast: diastolic aorta pressure,2 min,58.1 mm.Hg
same,APsyst: systolic aorta pressure,2 min,105.0 mm.Hg
same,BFFem: blood flow in the A. femoralis referred to 20 kg body weight,2 min,34.6 mL/min
same,HF: heart frequency,2 min,163.2
same,"HLL: heart capacity left, referred to 20 kg body weight",2 min,0.51 W
same,"HLR: heart capacity right, referred to 20 kg body weight",2 min,67.6 mW
same,"HZV: heart minute volume, referred to 20 kg body weight",2 min,3.15 L/min
same,LVEDP: end diastolic pressure in the left ventricle,2 min,3.60 mm.Hg
same,"SV: beat volume, referred to 20 kg body weight",2 min,20.0 mL
same,"WAP: pulmonalis resistance, referred to 20 kg body weight",2 min,0.30 U
same,"WFem: moralis resistance, referred to 20 kg body weight",2 min,0.33 KU
same,"WTP: total peripheral resistance, referred to 20 kg body weight",2 min,3.07 U
same,dp/dt: rate of pressure increase in the left ventricle,2 min,3045.0 mm.Hg/sec
same,APdiast: diastolic aorta pressure,5 min,79.7 mm.Hg
same,APsyst: systolic aorta pressure,5 min,126.6 mm.Hg
same,BFFem: blood flow in the A. femoralis referred to 20 kg body weight,5 min,39.1 mL/min
same,HF: heart frequency,5 min,129.7
same,"HLL: heart capacity left, referred to 20 kg body weight",5 min,0.56 W
same,"HLR: heart capacity right, referred to 20 kg body weight",5 min,66.9 mW
same,"HZV: heart minute volume, referred to 20 kg body weight",5 min,2.73 L/min
same,LVEDP: end diastolic pressure in the left ventricle,5 min,4.64 mm.Hg
same,"SV: beat volume, referred to 20 kg body weight",5 min,21.1 mL
same,"WAP: pulmonalis resistance, referred to 20 kg body weight",5 min,0.33 U
same,"WFem: moralis resistance, referred to 20 kg body weight",5 min,0.37 KU
same,dp/dt: rate of pressure increase in the left ventricle,5 min,2287.5 mm.Hg/sec
same,APdiast: diastolic aorta pressure,7 min,82.5 mm.Hg
same,APsyst: systolic aorta pressure,7 min,129.4 mm.Hg
same,BFFem: blood flow in the A. femoralis referred to 20 kg body weight,7 min,42.5 mL/min
same,HF: heart frequency,7 min,123.2
same,"HLL: heart capacity left, referred to 20 kg body weight",7 min,0.58 W
same,"HLR: heart capacity right, referred to 20 kg body weight",7 min,64.2 mW
same,"HZV: heart minute volume, referred to 20 kg body weight",7 min,2.75 L/min
same,LVEDP: end diastolic pressure in the left ventricle,7 min,4.92 mm.Hg
same,"SV: beat volume, referred to 20 kg body weight",7 min,22.4 mL
same,"WFem: moralis resistance, referred to 20 kg body weight",7 min,0.34 KU
same,"WTP: total peripheral resistance, referred to 20 kg body weight",7 min,4.77 U
same,dp/dt: rate of pressure increase in the left ventricle,7 min,2325.0 mm.Hg/sec
same,APdiast: diastolic aorta pressure,10 min,81.6 mm.Hg
same,APsyst: systolic aorta pressure,10 min,127.5 mm.Hg
same,HF: heart frequency,10 min,120.5
same,"HLL: heart capacity left, referred to 20 kg body weight",10 min,0.57 W
same,"HLR: heart capacity right, referred to 20 kg body weight",10 min,68.8 mW
same,"HZV: heart minute volume, referred to 20 kg body weight",10 min,2.76 L/min
same,LVEDP: end diastolic pressure in the left ventricle,10 min,4.92 mm.Hg
same,"SV: beat volume, referred to 20 kg body weight",10 min,23.0 mL
same,"WAP: pulmonalis resistance, referred to 20 kg body weight",10 min,0.32 U
same,"WFem: moralis resistance, referred to 20 kg body weight",10 min,0.32 KU
same,"WTP: total peripheral resistance, referred to 20 kg body weight",10 min,4.68 U
same,APdiast: diastolic aorta pressure,15 min,81.6 mm.Hg
same,APsyst: systolic aorta pressure,15 min,128.4 mm.Hg
same,BFFem: blood flow in the A. femoralis referred to 20 kg body weight,15 min,43.4 mL/min
same,HF: heart frequency,15 min,115.2
same,"HLL: heart capacity left, referred to 20 kg body weight",15 min,0.57 W
same,"HLR: heart capacity right, referred to 20 kg body weight",15 min,63.6 mW
same,"HZV: heart minute volume, referred to 20 kg body weight",15 min,2.77 L/min
same,LVEDP: end diastolic pressure in the left ventricle,15 min,5.20 mm.Hg
same,"SV: beat volume, referred to 20 kg body weight",15 min,24.2 mL
same,"WAP: pulmonalis resistance, referred to 20 kg body weight",15 min,0.30 U
same,"WFem: moralis resistance, referred to 20 kg body weight",15 min,0.31 KU
same,"WTP: total peripheral resistance, referred to 20 kg body weight",15 min,4.65 U
same,dp/dt: rate of pressure increase in the left ventricle,15 min,2250.0 mm.Hg/sec
same,APdiast: diastolic aorta pressure,20 min,82.5 mm.Hg
same,APsyst: systolic aorta pressure,20 min,128.4 mm.Hg
same,BFFem: blood flow in the A. femoralis referred to 20 kg body weight,20 min,44.2 mL/min
same,HF: heart frequency,20 min,114.5
same,"HLL: heart capacity left, referred to 20 kg body weight",20 min,0.55 W
same,"HLR: heart capacity right, referred to 20 kg body weight",20 min,63.1 mW
same,"HZV: heart minute volume, referred to 20 kg body weight",20 min,2.65 L/min
same,LVEDP: end diastolic pressure in the left ventricle,20 min,5.48 mm.Hg
same,"SV: beat volume, referred to 20 kg body weight",20 min,23.3 mL
same,"WAP: pulmonalis resistance, referred to 20 kg body weight",20 min,0.30 U
same,"WFem: moralis resistance, referred to 20 kg body weight",20 min,0.31 KU
same,"WTP: total peripheral resistance, referred to 20 kg body weight",20 min,4.90 U
same,dp/dt: rate of pressure increase in the left ventricle,20 min,2221.9 mm.Hg/sec
same,APdiast: diastolic aorta pressure,25 min,83.4 mm.Hg
same,APsyst: systolic aorta pressure,25 min,131.2 mm.Hg
same,BFFem: blood flow in the A. femoralis referred to 20 kg body weight,25 min,41.3 mL/min
same,"HLL: heart capacity left, referred to 20 kg body weight",25 min,0.56 W
same,"HLR: heart capacity right, referred to 20 kg body weight",25 min,60.5 mW
same,"HZV: heart minute volume, referred to 20 kg body weight",25 min,2.65 L/min
same,LVEDP: end diastolic pressure in the left ventricle,25 min,5.62 mm.Hg
same,"SV: beat volume, referred to 20 kg body weight",25 min,23.7 mL
same,"WAP: pulmonalis resistance, referred to 20 kg body weight",25 min,0.27 U
same,"WFem: moralis resistance, referred to 20 kg body weight",25 min,0.33 KU
same,"WTP: total peripheral resistance, referred to 20 kg body weight",25 min,5.00 U
same,dp/dt: rate of pressure increase in the left ventricle,25 min,2221.9 mm.Hg/sec
same,APdiast: diastolic aorta pressure,30 min,81.6 mm.Hg
same,APsyst: systolic aorta pressure,30 min,134.1 mm.Hg
same,BFFem: blood flow in the A. femoralis referred to 20 kg body weight,30 min,44.2 mL/min
same,HF: heart frequency,30 min,111.5
same,"HLL: heart capacity left, referred to 20 kg body weight",30 min,0.57 W
same,"HLR: heart capacity right, referred to 20 kg body weight",30 min,60.5 mW
same,"HZV: heart minute volume, referred to 20 kg body weight",30 min,2.68 L/min
same,LVEDP: end diastolic pressure in the left ventricle,30 min,5.62 mm.Hg
same,"SV: beat volume, referred to 20 kg body weight",30 min,24.2 mL
same,"WFem: moralis resistance, referred to 20 kg body weight",30 min,0.31 KU
same,"WTP: total peripheral resistance, referred to 20 kg body weight",30 min,4.87 U
same,dp/dt: rate of pressure increase in the left ventricle,30 min,2221.9 mm.Hg/sec
same,APdiast: diastolic aorta pressure,40 min,86.2 mm.Hg
same,APsyst: systolic aorta pressure,40 min,136.9 mm.Hg
